Source: ChEMBL document CHEMBL4715730, “Design, synthesis, and pharmacological evaluation of multitarget-directed ligands with both serotonergic subtype 4 receptor (5-HT4R) partial agonist and 5-HT6R antagonist activities, as potential treatment of Alzheimer's disease” (Eur J Med Chem, 2016)
Calls of active or inactive are those of the source. No cut-off for these calls is given here.

Experiments:
[1] = target: 5-hydroxytryptamine receptor 4 (Cavia porcellus) (UniProt O70528); assay: Displacement of [3H]-GR113808 from guinea pig brain 5HT4 receptor at 0.01 uM in presence of serotonin incubated for 30 mins; format: tissue-based
[2] = target: 5-hydroxytryptamine receptor 4 (Cavia porcellus) (UniProt O70528); assay: Displacement of [3H]-GR113808 from guinea pig brain 5HT4 receptor at 1 uM in presence of serotonin incubated for 30 mins; format: tissue-based
[3] = target: T1, 5-hydroxytryptamine receptor 6 (Homo sapiens, UniProt P50406); assay: Displacement of [3H]-LSD from human 5-HT6 receptor expressed in HEK293 cells at 1 uM in presence of serotonin incubated for 60 mins; format: cell-based
[4] = target: T1, 5-hydroxytryptamine receptor 6; assay: Displacement of [3H]-LSD from human 5-HT6 receptor expressed in HEK293 cells at 0.01 uM in presence of serotonin incubated for 60 mins; format: cell-based
[5] = target: 5-hydroxytryptamine receptor 4 (Cavia porcellus, UniProt O70528); assay: Displacement of [3H]-GR113808 from guinea pig brain 5HT4 receptor in presence of serotonin incubated for 30 mins; format: tissue-based
[6] = target: T1, 5-hydroxytryptamine receptor 6; assay: Displacement of [3H]-LSD from human 5-HT6 receptor expressed in HEK293 cells in presence of serotonin incubated for 60 mins; format: cell-based
[7] = target: T2, 5-hydroxytryptamine receptor 2A (Homo sapiens, UniProt P28223); assay: Displacement of [3H]ketanserin human recombinant 5-HT2A receptor after 60 mins by scintillation counting analysis relative to control
Mus musculus [8] = assay: Anti-amnesic effect in scopolamine-induced memory impairment NMRI mouse model assessed as spatial working memory by measuring increase in spontaneous alteration at 0.1 mg/kg, ip measured after 30 mins by Y-maze test; format: functional, organism-based
[9] = target: 5-hydroxytryptamine receptor 1D (Rattus norvegicus) (UniProt P28565); assay: Displacement of [3H]serotonin from recombinant rat 5-HT1D receptor at 10 uM after 60 mins by scintillation counting analysis relative to control
[10] = Toxicity in NMRI mouse assessed as neurological changes upto 100 mg/kg, ip measured 0.5 to 24 hrs; format: organism-based; conditions: in vivo, time 0.5-24 hrs
[11] = target: 5-hydroxytryptamine receptor 2B (Homo sapiens) (UniProt P41595); assay: Displacement of [125I]+/-DOI from human recombinant 5-HT2B receptor at 10 uM after 60 mins by scintillation counting analysis relative to control
[12] = Toxicity in NMRI mouse assessed as behavioral changes upto 100 mg/kg, ip measured 0.5 to 24 hrs; format: organism-based; conditions: in vivo, time 0.5-24 hrs
[13] = target: T3, 5-hydroxytryptamine receptor 1A (Homo sapiens) (UniProt P08908); assay: Displacement of [3H]8-OH-DPAT from recombinant human 5-HT1A receptor at 10 uM after 60 mins by scintillation counting analysis relative to control
T3 sequence (whole entry): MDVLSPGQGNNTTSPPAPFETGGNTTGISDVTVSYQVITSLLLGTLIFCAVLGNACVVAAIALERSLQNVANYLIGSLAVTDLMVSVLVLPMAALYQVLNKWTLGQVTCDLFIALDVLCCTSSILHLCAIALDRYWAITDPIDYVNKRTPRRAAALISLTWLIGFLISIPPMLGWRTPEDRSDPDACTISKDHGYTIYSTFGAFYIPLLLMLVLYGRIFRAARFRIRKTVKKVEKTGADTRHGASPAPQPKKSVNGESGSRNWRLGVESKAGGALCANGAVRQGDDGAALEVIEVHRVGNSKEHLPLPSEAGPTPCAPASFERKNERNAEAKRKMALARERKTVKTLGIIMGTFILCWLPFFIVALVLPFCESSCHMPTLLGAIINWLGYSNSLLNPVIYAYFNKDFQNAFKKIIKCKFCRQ

[14] = target: T4, 5-hydroxytryptamine receptor 2C (Homo sapiens, UniProt P28335); assay: Displacement of [125I]+/-DOI from human recombinant 5-HT2C receptor after 60 mins by scintillation counting analysis
T4 sequence (P28335 whole entry): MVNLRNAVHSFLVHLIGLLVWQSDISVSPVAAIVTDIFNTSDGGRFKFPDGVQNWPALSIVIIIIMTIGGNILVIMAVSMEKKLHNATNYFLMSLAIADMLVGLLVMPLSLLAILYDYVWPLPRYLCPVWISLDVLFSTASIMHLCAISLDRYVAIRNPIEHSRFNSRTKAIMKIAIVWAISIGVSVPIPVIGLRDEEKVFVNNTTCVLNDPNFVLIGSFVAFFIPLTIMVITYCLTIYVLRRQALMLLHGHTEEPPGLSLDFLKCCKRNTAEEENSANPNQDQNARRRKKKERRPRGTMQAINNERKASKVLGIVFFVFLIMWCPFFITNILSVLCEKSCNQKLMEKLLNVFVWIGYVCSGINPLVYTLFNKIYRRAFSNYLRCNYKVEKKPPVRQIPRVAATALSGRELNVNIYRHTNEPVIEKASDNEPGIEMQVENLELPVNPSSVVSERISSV

[15] = target: 5-hydroxytryptamine receptor 2B (Homo sapiens) (UniProt P41595); assay: Displacement of [125I]+/-DOI from human recombinant 5-HT2B receptor at 0.01 uM after 60 mins by scintillation counting analysis relative to control
[16] = Effect on spontaneous locomotory activity in NMRI mouse at 100 mg/kg, ip measured for 30 mins; format: organism-based; conditions: in vivo, 0.5 h
[17] = target: T2, 5-hydroxytryptamine receptor 2A; assay: Displacement of [3H]ketanserin human recombinant 5-HT2A receptor at 10 uM after 60 mins by scintillation counting analysis relative to control
[18] = target: T5, 5-hydroxytryptamine receptor 2C (Homo sapiens) (UniProt P28335); assay: Displacement of [125I]+/-DOI from human recombinant 5-HT2C receptor at 10 uM after 60 mins by scintillation counting analysis relative to control
T5 sequence (whole entry): T4 sequence (P28335 whole entry)

[19] = target: 5-hydroxytryptamine receptor 1B (Rattus norvegicus) (UniProt P28564); assay: Displacement of [125I]-CYP from rat brain 5-HT1B receptor at 10 uM after 120 mins by scintillation counting analysis relative to control; format: tissue-based
Mus musculus [20] = assay: Anti-amnesic effect in scopolamine-induced memory impairment NMRI mouse model assessed as spatial working memory by measuring increase in spontaneous alteration at 10 mg/kg, ip measured after 30 mins by Y-maze test; format: functional, organism-based
Mus musculus [21] = assay: Anti-amnesic effect in scopolamine-induced memory impairment NMRI mouse model assessed as spatial working memory by measuring increase in spontaneous alteration at 1 mg/kg, ip measured after 30 mins by Y-maze test; format: functional, organism-based

Sequence of 5-hydroxytryptamine receptor 4 (Cavia porcellus) (O70528 whole entry): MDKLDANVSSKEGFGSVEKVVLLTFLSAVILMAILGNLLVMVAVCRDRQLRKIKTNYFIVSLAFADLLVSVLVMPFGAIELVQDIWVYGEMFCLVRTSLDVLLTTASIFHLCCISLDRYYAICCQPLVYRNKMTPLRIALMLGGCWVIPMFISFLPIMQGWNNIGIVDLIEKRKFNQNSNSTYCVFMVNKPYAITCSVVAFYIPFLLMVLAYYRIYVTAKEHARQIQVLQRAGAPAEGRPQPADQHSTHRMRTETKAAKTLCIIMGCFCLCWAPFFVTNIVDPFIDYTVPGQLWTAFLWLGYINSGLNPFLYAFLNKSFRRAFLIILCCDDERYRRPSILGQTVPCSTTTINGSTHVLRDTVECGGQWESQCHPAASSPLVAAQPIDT
Sequence of 5-hydroxytryptamine receptor 4 (O70528 whole entry): as above
T1 sequence (P50406 whole entry): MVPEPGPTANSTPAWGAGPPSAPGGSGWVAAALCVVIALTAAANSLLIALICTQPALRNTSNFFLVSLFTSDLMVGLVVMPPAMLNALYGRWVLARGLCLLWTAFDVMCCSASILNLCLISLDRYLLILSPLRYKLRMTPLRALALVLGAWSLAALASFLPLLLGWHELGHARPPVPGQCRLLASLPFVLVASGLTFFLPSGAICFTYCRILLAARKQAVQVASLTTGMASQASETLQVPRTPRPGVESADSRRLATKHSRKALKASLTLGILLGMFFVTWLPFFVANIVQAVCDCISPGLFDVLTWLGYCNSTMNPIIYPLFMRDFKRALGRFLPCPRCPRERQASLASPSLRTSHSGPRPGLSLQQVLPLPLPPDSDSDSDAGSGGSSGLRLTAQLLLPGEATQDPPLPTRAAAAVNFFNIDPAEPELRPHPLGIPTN
Sequence of 5-hydroxytryptamine receptor 2B (Homo sapiens) (P41595 whole entry): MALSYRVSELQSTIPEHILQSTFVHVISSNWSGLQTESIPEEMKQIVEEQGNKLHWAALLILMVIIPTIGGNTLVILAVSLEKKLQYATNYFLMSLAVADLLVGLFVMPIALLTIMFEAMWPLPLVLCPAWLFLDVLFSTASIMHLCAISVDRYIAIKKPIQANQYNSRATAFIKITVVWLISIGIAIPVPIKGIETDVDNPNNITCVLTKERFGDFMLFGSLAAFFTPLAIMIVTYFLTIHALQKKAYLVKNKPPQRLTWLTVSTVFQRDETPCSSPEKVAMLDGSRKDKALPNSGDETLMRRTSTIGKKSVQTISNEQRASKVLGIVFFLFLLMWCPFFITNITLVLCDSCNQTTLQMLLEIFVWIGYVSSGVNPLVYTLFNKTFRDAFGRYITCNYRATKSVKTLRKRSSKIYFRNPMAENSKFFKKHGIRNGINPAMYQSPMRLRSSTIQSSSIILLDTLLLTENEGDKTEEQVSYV
T2 sequence (P28223 whole entry): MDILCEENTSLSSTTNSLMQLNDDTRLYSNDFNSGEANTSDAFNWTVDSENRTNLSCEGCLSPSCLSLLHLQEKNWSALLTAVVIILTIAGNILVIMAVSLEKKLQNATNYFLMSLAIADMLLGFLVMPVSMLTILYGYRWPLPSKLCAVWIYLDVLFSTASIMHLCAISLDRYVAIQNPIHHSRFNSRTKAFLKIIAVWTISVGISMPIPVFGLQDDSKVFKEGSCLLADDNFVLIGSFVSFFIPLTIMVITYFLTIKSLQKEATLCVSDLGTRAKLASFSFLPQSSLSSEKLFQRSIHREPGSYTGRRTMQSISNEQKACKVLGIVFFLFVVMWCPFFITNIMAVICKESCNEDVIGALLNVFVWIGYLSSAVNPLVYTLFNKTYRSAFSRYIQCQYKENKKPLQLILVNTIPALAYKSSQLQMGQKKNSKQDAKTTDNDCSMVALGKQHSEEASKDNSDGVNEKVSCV
Sequence of 5-hydroxytryptamine receptor 1B (Rattus norvegicus) (P28564 whole entry): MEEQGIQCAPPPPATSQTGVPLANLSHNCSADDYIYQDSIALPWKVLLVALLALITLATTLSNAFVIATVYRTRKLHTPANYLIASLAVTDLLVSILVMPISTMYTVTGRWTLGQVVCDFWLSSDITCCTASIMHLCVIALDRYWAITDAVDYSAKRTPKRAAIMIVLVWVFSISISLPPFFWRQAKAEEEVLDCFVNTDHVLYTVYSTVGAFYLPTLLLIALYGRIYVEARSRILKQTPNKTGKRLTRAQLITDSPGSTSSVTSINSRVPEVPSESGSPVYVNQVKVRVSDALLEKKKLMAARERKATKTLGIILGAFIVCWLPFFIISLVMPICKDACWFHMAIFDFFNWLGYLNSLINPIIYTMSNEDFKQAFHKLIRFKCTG
Sequence of 5-hydroxytryptamine receptor 1D (Rattus norvegicus) (P28565 whole entry): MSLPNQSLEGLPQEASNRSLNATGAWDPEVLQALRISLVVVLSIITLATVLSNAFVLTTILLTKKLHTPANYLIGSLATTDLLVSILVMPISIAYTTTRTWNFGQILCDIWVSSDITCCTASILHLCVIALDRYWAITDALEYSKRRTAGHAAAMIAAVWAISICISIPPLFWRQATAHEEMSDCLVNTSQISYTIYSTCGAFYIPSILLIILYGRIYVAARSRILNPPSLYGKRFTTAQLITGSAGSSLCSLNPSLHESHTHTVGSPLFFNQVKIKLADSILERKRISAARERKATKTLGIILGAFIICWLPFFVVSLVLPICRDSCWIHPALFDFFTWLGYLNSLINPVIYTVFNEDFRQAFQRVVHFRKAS

Structure (SMILES)	inhibition [1] [%]	inhibition [4]	inhibition ([1]; filed as agonist) [%]	Ki ([5]; read-out: Ki) [nM]	inhibition ([2]; filed as agonist) [%]	inhibition ([3]; filed as antagonist) [%]	further results
COc1ccc(S(=O)(=O)N2CCC(CCC(=O)c3cc(Cl)c(N)cc3OC)CC2)cc1	10	inactive	–	–	–	–	inhibition [2]: 20%; inhibition [3]: inactive
COc1ccc(S(=O)(=O)NCCCN2CCC(CCC(=O)c3cc(Cl)c(N)cc3OC)CC2)cc1	–	inactive	41	26	100	–	inhibition [3]: inactive
COc1cc(N)c(Cl)cc1C(=O)CCC1CCN(CCNS(=O)(=O)c2cc(Br)c(N)c(Br)c2)CC1	–	–	46	8.7	100	83	Ki ([6]; read-out: Ki): 140 nM; inhibition ([4]; filed as antagonist): 52%
COc1ccc(S(=O)(=O)NCCN2CCC(CCC(=O)c3cc(Cl)c(N)cc3OC)CC2)cc1OC	30	3%	–	8.2	100	58	–
COc1ccc(S(=O)(=O)NCCN2CCC(CCC(=O)c3cc(Cl)c(N)cc3OC)CC2)cc1Cl	–	20%	41	22.5	100	85	Ki ([6]; read-out: Ki): 158 nM
COc1ccc(S(=O)(=O)NCCN2CCC(CCC(=O)c3cc(Cl)c(N)cc3OC)CC2)c(OC)c1	19	inactive	–	18.7	100	45	–
COc1ccc(S(=O)(=O)NCCN2CCC(CCC(=O)c3cc(Cl)c(N)cc3OC)CC2)cc1	–	36%	48	12.3	100	52	–
COc1cc(N)c(Cl)cc1C(=O)CCC1CCN(CCNS(=O)(=O)c2ccc3c(c2)NC(=O)CO3)CC1	30	inactive	–	6.2	100	–	inhibition ([3]; filed as agonist): 40%
COc1ccc(NS(=O)(=O)c2sc3ccc(Cl)cc3c2C)cc1N1CCNCC1	–	–	–	–	–	–	Ki ([6]; hek293): Active
COc1cc(N)c(Cl)cc1C(=O)CCC1CCN(CCNS(=O)(=O)c2ccc3c(c2)N(C)CCO3)CC1	12	inactive	–	50	100	–	inhibition [3]: 7%
COc1cc(N)c(Cl)cc1C(=O)CCC1CCN(CCNS(=O)(=O)c2cc(Br)ccc2Br)CC1	–	16%	51	16.3	100	52	–
COc1ccc(S(=O)(=O)NCCN2CCC(CCC(=O)c3cc(Cl)c(N)cc3OC)CC2)cc1Br	24	inactive	–	24.3	99	72	Ki ([6]; read-out: Ki): 147 nM
COc1cc(N)c(Cl)cc1C(=O)CCC1CCN(CCNS(=O)(=O)c2ccc(N)c(Br)c2)CC1	–	39%	60	5.3	100	85	Ki [7]: 330 nM; Activity (Mus musculus [8]): inactive; inhibition [9]: 51.1%; Activity [10]: Non-Toxic; inhibition [11]: 100%; Activity [12]: Non-Toxic; Ki ([6]; read-out: Ki): 219 nM; inhibition [13]: 66.1%; Ki [14]: 160 nM; inhibition [15]: 41%; Activity [16]: Non-Toxic; inhibition [17]: 93.6%; inhibition [18]: 92.6%; inhibition [19]: 62.3%; Activity (Mus musculus [20]): inactive; Activity (Mus musculus [21]): Active
COc1ccc(S(=O)(=O)CCCN2CCC(CCC(=O)c3cc(Cl)c(N)cc3OC)CC2)cc1	11	10%	–	12.2	100	–	inhibition [3]: 33%
COc1cc(N)c(Cl)cc1C(=O)CCC1CCN(CCNS(=O)(=O)c2ccc(OC)c(N3CCN(C)CC3)c2)CC1	–	4%	75	3.46	97	43	–
COc1cc(N)c(Cl)cc1C(=O)CCC1CCN(CCNS(=O)(=O)c2ccc(N)cc2)CC1	–	7%	76	1.97	100	46	–
COc1cc(N)c(Cl)cc1C(=O)CCC1CCN(CCNS(=O)(=O)c2ccc(C)cc2)CC1	20	inactive	–	18	100	–	inhibition [3]: 15%
CCCCN1CCC(CCC(=O)c2cc(Cl)c(N)cc2OC)CC1	–	–	–	–	–	–	Ki [5]: Active; Ki ([6]; hek293): Active
COc1cc(N)c(Cl)cc1C(=O)CCC1CCN(CCNS(=O)(=O)c2ccc(NC(C)=O)cc2)CC1	–	7%	56	7.7	100	67	Ki ([6]; read-out: Ki): 834 nM
